What was measured:
allergic reaction = conditions: known from Matsushita et al. 1998, various experimental models; cited from earlier work
[1] = cited from earlier work
sleep condition = conditions: administered in the ventricle of the brain of a mouse; cited from earlier work
human hematopoietic PGDS = target: T1, human hematopoietic PGDS (Homo sapiens, UniProt O60760, N144M); assay: Glutathione binding/affinity to PGDS with metal ion; conditions: metal ion in center of PGDS dimer
T1 construct: made in house; host or cells: Escherichia coli BL21 (DE-3), plasmid pT7-7hPGDS
T1 sequence (O60760 2-199 N144M): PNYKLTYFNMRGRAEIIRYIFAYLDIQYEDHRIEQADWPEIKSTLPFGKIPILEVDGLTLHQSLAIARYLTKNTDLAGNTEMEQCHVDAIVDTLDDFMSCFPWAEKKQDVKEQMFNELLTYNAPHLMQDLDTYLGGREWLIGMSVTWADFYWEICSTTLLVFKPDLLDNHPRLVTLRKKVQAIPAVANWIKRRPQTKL

hematopoietic PGDS = hematopoietic PGDS (Homo sapiens, UniProt O60760); assay: PGDS enzymatic activity: conversion of PGH2 to PGD2 (confirmation of inhibitors); assay type: biochemical; conditions: metal ion in center of PGDS dimer
Sequence of hematopoietic PGDS (O60760 whole entry): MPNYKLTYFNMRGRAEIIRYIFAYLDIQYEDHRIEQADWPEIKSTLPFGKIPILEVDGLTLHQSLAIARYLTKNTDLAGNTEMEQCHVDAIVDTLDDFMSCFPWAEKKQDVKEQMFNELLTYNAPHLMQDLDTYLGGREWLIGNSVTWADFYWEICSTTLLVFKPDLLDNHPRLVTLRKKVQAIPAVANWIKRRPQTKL
Excerpt: After a candidate compound for inhibition of hematopoietic PGDS is thus selected, the selected compound is contacted with the enzyme in the presence of the substrate (prostaglandin H2) to confirm the compound can inhibit the enzymatic activity (Shimizu, T., Yamamoto, S., and Hayaishi, O. (1979). Purification and properties of prostaglandin D synthase from rat brain. J. Biol. Chem. 254, 5222-5228). The measurement of enzymatic activity is, for example, carried out as follows: The substrate [1-^14C]prostaglandin(PG)H2 is prepared by reacting [1-^14C]arachidonic acid with cyclooxygenase. Since PGH2 is easily decomposed in aqueous solution (half-life: about 5 minutes), it is dried and stored at a low temperature (−80° C.). […] After the development, radioactivity of PGD2 fraction and other fraction are measured and the enzyme activity is calculated from the ratio of conversion to PGD2.
Alternatively, enzyme reaction is carried out using commercially available non-labeled PGH2. After the reaction, PGH2 is decomposed to 12(S)-hydroxy-8,10-trans-5-cis-heptadecatrienolic acid with the treatment by FeCl2 before quantifying with reverse phase HPLC using 11-β-PGE2 as an internal standard or commercially available ELISA to quantify PGD2.

## c1ccc(C(OC2CCN(CCCc3nnn[nH]3)CC2)c2ccccc2)cc1 [HQL-79, 4-benzhydryloxy-1-{3-(1H-tetrazol-5-yl)-propyl}piperidine]
Allergic reaction
  anti-allergic activity: anti-allergic activity

## CCCCC[C@H](O)/C=C/[C@@H]1[C@@H](C/C=C\CCCC(=O)O)[C@@H]2C[C@H]1OO2 [PGH2, prostaglandin H2]
[1]
  half-life in aqueous solution: about 5 minutes

## CCCCC[C@H](O)/C=C/[C@H]1C(=O)C[C@H](O)[C@@H]1C/C=C\CCCC(=O)O [prostaglandin D2, Prostaglandin D2]
Sleep condition
  effect on sleep: sleep is induced

## Calcium
Human hematopoietic PGDS
  influence on glutathione binding: no influence on the glutathione binding
Hematopoietic PGDS
  effect on reaction rate of PGDS enzyme: increases the reaction rate of PGDS enzyme

## Magnesium
Human hematopoietic PGDS
  increase of affinity of glutathione to PGDS: more than 3 times

— patent publication US7547532B2, “Three-dimensional structure of prostaglandin D synthase and utilization thereof” (Japan Science and Technology Agency, priority 2001, dated 2009)
